What was measured:
goosegrass [1] = experiment: Test A preemergence; assay type: in vivo, Eleusine indica
In short: (§1)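 Visual injury ratings on a 0–100 scale (100 = complete control) versus untreated controls, taken 10 days after treatment in greenhouse. Preemergence: directed soil spray onto seeded loam/sand. Postemergence: foliar application at one- to two-leaf stage, plants 2–10 cm. Formulation: non-phytotoxic solvent plus surfactant.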

oat, wild [2] = experiment: Test A postemergence; assay type: in vivo, Avena fatua
In short: as §1

kochia [3] = experiment: Test A preemergence; assay type: in vivo, Bassia scoparia
In short: as §1

rice = experiment: Test B flooded paddy test; assay type: in vivo, Oryza sativa; settings: 250 g ai/ha, Flood, 13 days, 0 to 100 scale (0 no effect, 100 complete control)
In short: (§2)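 2-leaf stage; pots flooded 3 cm over soil; compound dosed into paddy water; depth kept constant. Greenhouse, 13 d. Visual rating vs controls, 0 (no effect)–100 (complete control). Dash = no result.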

corn [4] = experiment: Test A preemergence; assay type: in vivo, Zea mays
In short: as §1

oat, wild [5] = experiment: Test A preemergence; assay type: in vivo, Avena fatua
Text: Seeds of plant species selected from barnyardgrass (Echinochloa crusgalli), blackgrass (Alopecurus myosuroides), corn (Zea mays), foxtail, giant (giant foxtail, Setaria faberi), goosegrass (Eleusine indica), kochia (Bassia scoparia), oat, wild (wild oat, Avena fatua), pigweed, palmer (palmer amaranth, palmer pigweed, Amaranthus palmeri), Pigweed, Redroot (redroot pigweed, Amaranthus retroflexus), ragweed (common ragweed, Ambrosia artemisiifolia), ryegrass, Italian (italian ryegrass, Lolium multiflorum), soybean (Glycine max), and wheat (Triticum aestivum) were planted into a blend of loam soil and sand and treated preemergence with a directed soil spray using test chemicals formulated in a non-phytotoxic solvent mixture which included a surfactant. At the same time, plants selected from these crops and weed species and also galium (catchweed bedstraw, Galium aparine) and horseweed (Erigeron canadensis) were planted in pots containing the same blend of loam soil and sand and treated with postemergence applications of test chemicals formulated in the same manner. Plants ranged in height from 2 to 10 cm and were in the one- to two-leaf stage for the postemergence treatment. Treated plants and untreated controls were maintained in a greenhouse for 10 days, after which time all treated plants were compared to untreated controls and visually evaluated for injury. Plant response ratings, summarized in Table A, are based on a 0 to 100 scale where 0 is no effect and 100 is complete control. A dash (-) response means no test result.

foxtail, giant [6] = experiment: Test A postemergence; assay type: in vivo, Setaria faberi
In short: as §1

goosegrass [7] = experiment: Test A postemergence; assay type: in vivo, Eleusine indica
In short: as §1

blackgrass [8] = experiment: Test A preemergence; assay type: in vivo, Alopecurus myosuroides
In short: as §1

wheat [9] = experiment: Test A postemergence; assay type: in vivo, Triticum aestivum
In short: as §1

pigweed, palmer [10] = experiment: Test A preemergence; assay type: in vivo, Amaranthus palmeri
In short: as §1

sedge, umbrella = experiment: Test B flooded paddy test; assay type: in vivo, Cyperus difformis; settings: 250 g ai/ha, Flood, 13 days, 0 to 100 scale (0 no effect, 100 complete control)
In short: as §2

blackgrass [11] = experiment: Test A postemergence; assay type: in vivo, Alopecurus myosuroides
In short: as §1

ryegrass, Italian [12] = experiment: Test A preemergence; assay type: in vivo, Lolium multiflorum
In short: as §1

soybean [13] = experiment: Test A postemergence; assay type: in vivo, Glycine max
In short: as §1

pigweed, palmer [14] = experiment: Test A postemergence; assay type: in vivo, Amaranthus palmeri
In short: as §1

corn [15] = experiment: Test A postemergence; assay type: in vivo, Zea mays
In short: as §1

kochia [16] = experiment: Test A postemergence; assay type: in vivo, Bassia scoparia
In short: as §1

barnyardgrass = experiment: Test B flooded paddy test; assay type: in vivo, Echinochloa crus-galli; settings: 250 g ai/ha, Flood, 13 days, 0 to 100 scale (0 no effect, 100 complete control)
In short: as §2

foxtail, giant [17] = experiment: Test A preemergence; assay type: in vivo, Setaria faberi
In short: as §1

ducksalad = experiment: Test B flooded paddy test; assay type: in vivo, Heteranthera limosa; settings: 250 g ai/ha, Flood, 13 days, 0 to 100 scale (0 no effect, 100 complete control)
In short: as §2

ragweed [18] = experiment: Test A preemergence; assay type: in vivo, Ambrosia artemisiifolia
In short: as §1

ragweed [19] = experiment: Test A postemergence; assay type: in vivo, Ambrosia artemisiifolia
In short: as §1

ryegrass, Italian [20] = experiment: Test A postemergence; assay type: in vivo, Lolium multiflorum
In short: as §1

galium = experiment: Test A postemergence; assay type: in vivo, Galium aparine
In short: as §1

wheat [21] = experiment: Test A preemergence; assay type: in vivo, Triticum aestivum
In short: as §1

soybean [22] = experiment: Test A preemergence; assay type: in vivo, Glycine max
In short: as §1

[23] = 125 g ai/ha, visual injury after 10 days, 0 to 100 scale, 0 is no effect, 100 is complete control
[24] = 500 g ai/ha, 0 to 100 scale (0 no effect, 100 complete control), 10 days
[25] = 125 g ai/ha, postemergence, 10 days, visual injury, 0 to 100 scale (0 no effect, 100 complete control)
[26] = 500 g ai/ha, Postemergence, 0 to 100 scale

C[C@H]1CN(C(=O)c2cccc(-n3cncn3)c2)c2cccc(OC(F)(F)F)c2O1 [Compound 48]
60: Plant response rating, Corn (corn [15]; [26]) | Plant response rating, Galium (galium; [26])
90: Plant response rating, Pigweed, Palmer (pigweed, palmer [10]; [24]) | Plant response rating, Foxtail, Giant (foxtail, giant [17]; [24])
40: Plant response rating, Goosegrass (goosegrass [1]; [23]) | Plant response rating, Goosegrass (goosegrass [7]; [26]) | Plant response rating, Ryegrass, Italian (ryegrass, Italian [20]; [26]) | Plant response rating, Galium (galium; [25])
70: Plant response rating, Foxtail, Giant (foxtail, giant [6]; [26]) | Plant response rating, Ryegrass, Italian (ryegrass, Italian [12]; [23]) | Plant response rating, Soybean (soybean [13]; [25]) | Plant response rating, Pigweed, Palmer (pigweed, palmer [14]; [26])
0: Plant response rating, Kochia (kochia [3]; [23]) | Plant response rating, Rice (rice) | Plant response rating, Corn (corn [4]; [23]) | Plant response rating, Goosegrass (goosegrass [7]; [25]) | Plant response rating, Sedge, Umbrella (sedge, umbrella) | Plant response rating, Blackgrass (blackgrass [11]; [25]) | Plant response rating, Barnyardgrass (barnyardgrass) | Plant response rating, Ducksalad (ducksalad) | Plant response rating, Ragweed (ragweed [18]; [23]) | Plant response rating, Ragweed (ragweed [18]; [24]) | Plant response rating, Ragweed (ragweed [19]; [25]) | Plant response rating, Wheat (wheat [21]; [23]) | Plant response rating, Wheat (wheat [21]; [24]) | Plant response rating, Soybean (soybean [22]; [23]) | Plant response rating, Soybean (soybean [22]; [24])
10: Plant response rating, Oat, Wild (oat, wild [2]; [25]) | Plant response rating, Wheat (wheat [9]; [25]) | Plant response rating, Corn (corn [15]; [25])
30: Plant response rating, Oat, Wild (oat, wild [2]; [26]) | Plant response rating, Kochia (kochia [3]; [24]) | Plant response rating, Corn (corn [4]; [24]) | Plant response rating, Oat, Wild (oat, wild [5]; [24]) | Plant response rating, Wheat (wheat [9]; [26]) | Plant response rating, Pigweed, Palmer (pigweed, palmer [10]; [23]) | Plant response rating, Blackgrass (blackgrass [11]; [26]) | Plant response rating, Pigweed, Palmer (pigweed, palmer [14]; [25])
80: Plant response rating, Goosegrass (goosegrass [1]; [24]) | Plant response rating, Blackgrass (blackgrass [8]; [24])
100: Plant response rating, Ryegrass, Italian (ryegrass, Italian [12]; [24]) | Plant response rating, Soybean (soybean [13]; [26])
20: Plant response rating, Oat, Wild (oat, wild [5]; [23]) | Plant response rating, Foxtail, Giant (foxtail, giant [6]; [25]) | Plant response rating, Blackgrass (blackgrass [8]; [23]) | Plant response rating, Kochia (kochia [16]; [25]) | Plant response rating, Foxtail, Giant (foxtail, giant [17]; [23]) | Plant response rating, Ragweed (ragweed [19]; [26]) | Plant response rating, Ryegrass, Italian (ryegrass, Italian [20]; [25])
50: Plant response rating, Kochia (kochia [16]; [26])

CC1CN(C(=O)c2cccc(-n3cncn3)c2)c2cc(F)cc(F)c2O1 (stereo not shown) [Compound 45]
90: Plant response rating, Foxtail, Giant (foxtail, giant [6]; [26]) | Plant response rating, Ryegrass, Italian (ryegrass, Italian [12]; [24]) | Plant response rating, Galium (galium; [26]) | Plant response rating, Soybean (soybean [22]; [24])
40: Plant response rating, Wheat (wheat [9]; [26])
70: Plant response rating, Goosegrass (goosegrass [1]; [23]) | Plant response rating, Pigweed, Palmer (pigweed, palmer [10]; [24]) | Plant response rating, Ryegrass, Italian (ryegrass, Italian [12]; [23]) | Plant response rating, Foxtail, Giant (foxtail, giant [17]; [23])
0: Plant response rating, Oat, Wild (oat, wild [2]; [25]) | Plant response rating, Kochia (kochia [3]; [23]) | Plant response rating, Rice (rice) | Plant response rating, Corn (corn [4]; [23]) | Plant response rating, Oat, Wild (oat, wild [5]; [23]) | Plant response rating, Goosegrass (goosegrass [7]; [25]) | Plant response rating, Sedge, Umbrella (sedge, umbrella) | Plant response rating, Barnyardgrass (barnyardgrass) | Plant response rating, Ducksalad (ducksalad) | Plant response rating, Ragweed (ragweed [18]; [23]) | Plant response rating, Ragweed (ragweed [18]; [24]) | Plant response rating, Ragweed (ragweed [19]; [25]) | Plant response rating, Wheat (wheat [21]; [23])
80: Plant response rating, Oat, Wild (oat, wild [5]; [24]) | Plant response rating, Blackgrass (blackgrass [8]; [24]) | Plant response rating, Kochia (kochia [16]; [26]) | Plant response rating, Ryegrass, Italian (ryegrass, Italian [20]; [26]) | Plant response rating, Galium (galium; [25])
30: Plant response rating, Pigweed, Palmer (pigweed, palmer [10]; [23]) | Plant response rating, Blackgrass (blackgrass [11]; [25]) | Plant response rating, Pigweed, Palmer (pigweed, palmer [14]; [25]) | Plant response rating, Ragweed (ragweed [19]; [26])
100: Plant response rating, Goosegrass (goosegrass [1]; [24]) | Plant response rating, Soybean (soybean [13]; [25]) | Plant response rating, Soybean (soybean [13]; [26]) | Plant response rating, Foxtail, Giant (foxtail, giant [17]; [24])
50: Plant response rating, Blackgrass (blackgrass [8]; [23]) | Plant response rating, Ryegrass, Italian (ryegrass, Italian [20]; [25])
10: Plant response rating, Wheat (wheat [9]; [25]) | Plant response rating, Pigweed, Palmer (pigweed, palmer [14]; [26]) | Plant response rating, Corn (corn [15]; [25]) | Plant response rating, Kochia (kochia [16]; [25])
60: Plant response rating, Goosegrass (goosegrass [7]; [26]) | Plant response rating, Blackgrass (blackgrass [11]; [26]) | Plant response rating, Wheat (wheat [21]; [24])
20: Plant response rating, Oat, Wild (oat, wild [2]; [26]) | Plant response rating, Kochia (kochia [3]; [24]) | Plant response rating, Corn (corn [4]; [24]) | Plant response rating, Foxtail, Giant (foxtail, giant [6]; [25]) | Plant response rating, Corn (corn [15]; [26]) | Plant response rating, Soybean (soybean [22]; [23])

From patent publication US20260262643A1, “HERBICIDAL BENZOXAZINES” (FMC CORPORATION, priority 2022, published 2026)
